Assay results: US8178506B2, “Oligomeric compounds and compositions for use in modulation of small non-coding RNAs” (Regulus Therapeutics Inc., priority 2003, dated 2012)
In the oligonucleotide strings, read from the 5' end, every base follows the letter of its sugar. An asterisk marks phosphorothioate; unmarked linkages are phosphodiester. Other units and linkages are bracketed, terminal groups are in braces. A string of capitals states the bases alone. e = 2'-O-(2-methoxyethyl) (MOE); [5mC] = 5-methylcytosine

What was measured:
Type in all cases: cell-based, human
mir-23b miRNA = assay: pGL3-mir-23b sensor luciferase assay in HeLa cells; conditions: pGL3-mir-23b sensor-expressing HeLa cells
From the text: In order to assess the ability of miRNAs to bind predicted miRNA binding sites and regulate the expression of the luciferase reporter, in some embodiments, expression systems based on the pGL3-Control (Promega Corp., Madison Wis.) reporter vector and comprising either a mir-15a, mir-21, or a mir-23b miRNA binding site were developed and used in transient transfections of HeLa cells to determine whether the endogenous mir-15a, mir-21, or mir-23b miRNAs, respectively, could repress luciferase reporter gene expression.
The pGL3-mir-23b sensor plasmid was created by cloning the sequence ([…]; SEQ ID NO: 307), representing a sequence complementary to the mir-23b miRNA, into the Xba site of the pGL3-Control plasmid, placing the potential miRNA-binding site in the 3′UTR of the luciferase reporter. This reporter plasmid was used to transfect HeLa cells and it was observed that the endogenous mir-23b miRNA was able to inhibit luciferase expression from the pGL3-mir-23b sensor plasmid. Thus, to further evaluate the ability of the mir-23b miRNA to bind this target site encoded by the pGL3-mir-23b sensor plasmid, and to assess the ability of oligomeric compounds to interfere with mir-23b-mediated silencing, pGL3-mir-23b sensor-expressing HeLa cells were treated with varying concentrations (1.3-, 5- or 20 nM) of the following oligomeric compounds: ISIS Number 327889 (SEQ ID NO: 307), a phosphorothioate uniform 2′-MOE oligomeric compound, and ISIS Number 340925 (SEQ ID NO: 307), a 2′-MOE 5-10-8 gapmer oligomeric compound, both targeting mir-23b. The uniform 2′-MOE phosphorothioate oligomeric compound ISIS Number 327924 (SEQ ID NO: 342) targeting an unrelated miRNA (mir-129-2) was used as a negative control. The data are the average of three trials, and are presented in Table 43 as relative luciferase activity (normalized to pRL-CMV luciferase plasmid only, not treated with oligomeric compound).

[1] = system: 3′-UTR of the LIM domain only 4 (LMO4) gene; assay: pGL3-LMO4 luciferase assay in HeLa cells; conditions: 48 hours
From the text: (§1) In one embodiment, an expression system based on the pGL3-Control (Promega Corp., Madison Wis.) vector containing a CMV promoter controlling expression of a luciferase reporter sequence was used in transient transfections of HeLa cells with plasmids expressing miRNA or pri-miRNA mimics. To assess the ability of miRNA mimics to bind and regulate the expression of the luciferase reporter gene, two reporter plasmids were constructed: 1) a synthetic DNA fragment comprising two sites perfectly complementary to mir-143 were inserted into the pGL3-Control luciferase reporter vector, to create the pGL3-mir-143 sensor plasmid, and 2) a DNA fragment comprising the 3′-UTR of the LIM domain only 4 (LMO4) gene (predicted to be regulated by mir-143) was inserted into pGL3-Control to create pGL3-LMO4; this fragment was PCR-amplified using a primer beginning at position 1261 of the LMO4 sequence (GenBank Accession NM_006769.2, incorporated herein as SEQ ID: 809) and the downstream primer hybridizing to the poly-A tail. In each of these plasmids, the target site was placed downstream of the luciferase coding sequence and upstream of the polyadenylation signal in the 3′-UTR of the luciferase reporter vector. The unmodified pGL3-Control luciferase reporter vector was used as a control.
HeLa cells were routinely cultured and passaged as described, and on the day before transfection with expression or reporter plasmids, the HeLa cells were seeded onto 24-well plates 50,000 cells/well. Cells were transfected according to standard published procedures with various combinations of plasmids using 2 μg Lipofectamine™ 2000 Reagent (Invitrogen) per μg of plasmid DNA, or, when transfecting oligomeric compounds, 1.25 μg of Lipofectamine™ 2000 Reagent per 100 nM oligonucleotide or double-stranded RNA. The luciferase signal in each well was normalized to the Renilla luciferase (RL) activity produced from a co-transfected plasmid, pRL-CMV, which was transfected at 0.5 μg per well. […]

[2] = system: pGL3-Control luciferase reporter; assay: pGL3-Control luciferase assay in HeLa cells (reporter without miRNA binding site); conditions: for luciferase expression: 24 hours; for luciferase expression (% lucif. only control): pGL3-Control, 48 hours
From the text: as §1
HeLa cells were routinely cultured and passaged as described, and on the day before transfection with expression or reporter plasmids, the HeLa cells were seeded onto 24-well plates 50,000 cells/well. Cells were transfected according to standard published procedures with various combinations of plasmids using 2 μg Lipofectamine™ 2000 Reagent (Invitrogen) per μg of plasmid DNA, or, when transfecting oligomeric compounds, 1.25 μg of Lipofectamine™ 2000 Reagent per 100 nM oligonucleotide or double-stranded RNA. The luciferase signal in each well was normalized to the Renilla luciferase (RL) activity produced from a co-transfected plasmid, pRL-CMV, which was transfected at 0.5 μg per well. Cells were treated at various dosages (4 nM, 20 nM, and 100 nM) with the following oligomeric compound mimics: 1) “ds-mir-143,” 2) “ds-Control,” 3) “pCR3-pri-mir-143,” or 4) “pri-mir-control,” as described supra. In accordance with methods described in Example 12, supra, a luciferase assay was performed 48-hours after transfection. Briefly, cells were lysed in passive lysis buffer (PLB; Promega), and 20 ul of the lysate was then assayed for RL activity using a Dual Luciferase Assay kit (Promega) according to the manufacturer's protocol. The results below are an average of three trials and are presented as percent pGL3-Control luciferase expression normalized to pRL-CMV expression (RL).
An expression system based on the pGL3-Control (Promega Corp., Madison Wis.) reporter vector and comprising predicted miRNA binding sites was used in transient transfections of HeLa cells with plasmids expressing oligomeric compounds mimicking miRNAs, pre-miRNAs or pri-miRNAs in order to assess the ability of these miRNA mimics to bind and regulate the expression of the luciferase reporter. The effect of increasing the copy number of the miRNA-binding site in the target was also tested by including multiple binding sites in artificial reporter constructs. It is understood that the presence of multiple miRNA-binding sites in a target can include binding sites for different miRNAs.
HeLa cells were routinely cultured and passaged as described. In some embodiments, HeLa cells were transfected with 0.05 μg of the relevant pGL3-sensor plasmid and 0.01 μg pRL-CMV plasmid. Additionally, in some embodiments, cells were treated at various dosages (11 nM, 33 nM, and 100 nM) with the following oligomeric compound mimics: 1) ds-mir-143, or 2) ds-Control as described. In accordance with methods described in Example 12, a luciferase assay was performed 24-hours after transfection. The results, shown in Tables 40 and 41, are an average of three trials. […]

Substance | Fold change luciferase (mir-23b miRNA; 1.3 nM) | Fold change luciferase (mir-23b miRNA; 5 nM) | Fold change luciferase (mir-23b miRNA; 20 nM) | luciferase expression (% lucif. only control) ([1]; 4 nM) | luciferase expression (% lucif. only control) ([1]; 20 nM) | luciferase expression (% lucif. only control) ([1]; 100 nM) | luciferase expression ([2]; Table 40, pGL3-Control, 11 nM) [percent untreated control] | luciferase expression ([2]; Table 40, pGL3-Control, 33 nM) [percent untreated control] | luciferase expression ([2]; Table 40, pGL3-Control, 100 nM) [percent untreated control] | luciferase expression ([2]; Table 41, pGL3-Control, 11 nM) [percent untreated control] | luciferase expression ([2]; Table 41, pGL3-Control, 33 nM) [percent untreated control] | luciferase expression ([2]; Table 41, pGL3-Control, 100 nM) [percent untreated control] | luciferase expression (% lucif. only control) ([2]; 4 nM) | luciferase expression (% lucif. only control) ([2]; 20 nM) | luciferase expression (% lucif. only control) ([2]; 100 nM)
327924 (antisense eG*e[5mC]*eA*eA*eG*e[5mC]*e[5mC]*e[5mC]*eA*eG*eA*e[5mC]*e[5mC]*eG*e[5mC]*eA*eA*eA*eA*eA*eG) [compound 327924] | 1.15 | 0.68 | 0.92 |  |  |  |  |  |  |  |  |  |  |  | 
ds-mir-143: double-stranded RNA of ISIS 342199 hybridized to its perfect complement ISIS 342200 (sense UGAGAUGAAGCACUGUAGCUCA; antisense UGAGCUACAGUGCUUCAUCUCA; RNA, backbone not given here) |  |  |  | 151.6 | 140.1 | 128.4 | 90.7 | 94.2 | 72.5 | 110.2 | 124.3 | 92.3 | 101.5 | 123.8 | 131.8
